According to ChEMBL document CHEMBL3259736, “Synthesis of new simplified hemiasterlin derivatives with α,β-unsaturated carbonyl moiety” (Bioorg Med Chem Lett, 2014):

What was measured:
Assay type in all cases: functional, cell-based
HepG2 = assay: Cytotoxicity against human HepG2 cells assessed as inhibition of cell growth after 3 days by MTT assay; conditions: HepG2, 72 h
[1] = Cytotoxicity against human Lu cells assessed as inhibition of cell growth after 3 days by MTT assay; conditions: 72 h
MCF7 = assay: Cytotoxicity against human MCF7 cells assessed as inhibition of cell growth after 3 days by MTT assay; conditions: MCF7, 72 h
KB = assay: Cytotoxicity against human KB cells assessed as inhibition of cell growth after 3 days by MTT assay; conditions: 72 h

In the case of CC(=O)N/C(=C\c1ccoc1)C(=O)N[C@H](C(=O)N[C@H](/C=C(\C)C(=O)O)C(C)C)C(C)(C)C, the IC50 (HepG2) is reported as over 269 nM, the IC50 [1] is reported as over 269 nM and the IC50 (MCF7) is reported as over 269 nM. It also gave an IC50 (KB) of 155 nM.
CCOC(=O)/C(C)=C/[C@@H](NC(=O)[C@@H](NC(=O)/C(=C/c1ccsc1)NC(C)=O)C(C)(C)C)C(C)C showed an IC50 (HepG2) of 57.6 nM, an IC50 [1] of over 269 nM and an IC50 (MCF7) of 203 nM. The IC50 (KB) was 107 nM.
Molecule CC(=O)N/C(=C\c1ccsc1)C(=O)N[C@H](C(=O)N(C)[C@H](/C=C(\C)C(=O)O)C(C)C)C(C)(C)C has an IC50 (HepG2) of 63.2 nM, an IC50 [1] of over 269 nM and an IC50 (MCF7) of over 269 nM. The IC50 (KB) was 234 nM.
Work on CC(=O)N/C(=C\c1ccsc1)C(=O)N[C@H](C(=O)N[C@H](/C=C(\C)C(=O)O)C(C)C)C(C)(C)C yielded an IC50 (HepG2) of over 269 nM, an IC50 [1] of over 269 nM and an IC50 (MCF7) of over 269 nM. It also gave an IC50 (KB) of over 269 nM.
With CC(=O)N/C(=C\c1ccc2ccccc2c1)C(=O)N[C@H](C(=O)N(C)[C@H](/C=C(\C)C(=O)O)C(C)C)C(C)(C)C the IC50 (HepG2) was 13 nM, the IC50 [1] was over 269 nM and the IC50 (MCF7) was over 269 nM. For the same molecule, the IC50 (KB) was 69.7 nM.
In the case of Cc1c2ccncc2c(C)c2c1[nH]c1ccccc12 [ELLIPTECINE], the IC50 (HepG2) is reported as 1.26 nM, the IC50 [1] is reported as 1.82 nM and the IC50 (MCF7) is reported as 2.15 nM. The IC50 (KB) was 1.26 nM.
Molecule CCOC(=O)/C(C)=C/[C@@H](NC(=O)[C@@H](NC(=O)/C(=C/c1cccc(Br)c1)NC(C)=O)C(C)(C)C)C(C)C has an IC50 (HepG2) of over 269 nM, an IC50 [1] of over 269 nM and an IC50 (MCF7) of over 269 nM. For the same molecule, the IC50 (KB) was over 269 nM.
Work on CCOC(=O)/C(C)=C/[C@@H](NC(=O)[C@@H](NC(=O)/C(=C/c1ccc(OC)cc1)NC(C)=O)C(C)(C)C)C(C)C yielded an IC50 (HepG2) of over 269 nM, an IC50 [1] of over 269 nM and an IC50 (MCF7) of over 269 nM. The IC50 (KB) was over 269 nM.
CC(=O)N/C(=C\c1ccco1)C(=O)N[C@H](C(=O)N[C@H](/C=C(\C)C(=O)O)C(C)C)C(C)(C)C showed an IC50 (HepG2) of 17.8 nM, an IC50 [1] of over 269 nM and an IC50 (MCF7) of over 269 nM. The IC50 (KB) was 8.2 nM.
Molecule CCOC(=O)/C(C)=C/[C@@H](NC(=O)[C@@H](NC(=O)/C(=C/c1cccc(OC)c1)NC(C)=O)C(C)(C)C)C(C)C has an IC50 (HepG2) of 47.7 nM, an IC50 [1] of 228 nM and an IC50 (MCF7) of 62 nM. The IC50 (KB) was 77.4 nM.
CC(=O)O[C@H]1C(=O)[C@@]2(C)[C@H]([C@H](OC(=O)c3ccccc3)[C@]3(O)C[C@H](OC(=O)[C@H](O)[C@@H](NC(=O)c4ccccc4)c4ccccc4)C(C)=C1C3(C)C)[C@]1(OC(C)=O)CO[C@@H]1C[C@@H]2O [PACLITAXEL] showed an IC50 (HepG2) of 0.19 nM and an IC50 (KB) of 3.9 nM.
CCOC(=O)/C(C)=C/[C@@H](NC(=O)[C@@H](NC(=O)/C(=C/c1ccco1)NC(C)=O)C(C)(C)C)C(C)C gave an IC50 (HepG2) of 214 nM, an IC50 [1] of over 269 nM and an IC50 (MCF7) of over 269 nM. It also gave an IC50 (KB) of 160 nM.
Molecule CCOC(=O)/C(C)=C/[C@@H](NC(=O)[C@@H](NC(=O)/C(=C/c1ccoc1)NC(C)=O)C(C)(C)C)C(C)C has an IC50 (HepG2) of 67.3 nM, an IC50 [1] of over 269 nM and an IC50 (MCF7) of over 269 nM. It also gave an IC50 (KB) of 86.2 nM.
CCOC(=O)/C(C)=C/[C@H](C(C)C)N(C)C(=O)[C@@H](NC(=O)/C(=C/c1cccc(OC)c1)NC(C)=O)C(C)(C)C gave an IC50 (HepG2) of over 269 nM, an IC50 [1] of over 269 nM and an IC50 (MCF7) of over 269 nM. For the same molecule, the IC50 (KB) was over 269 nM.
For CCOC(=O)/C(C)=C/[C@H](C(C)C)N(C)C(=O)[C@@H](NC(=O)/C(=C/c1ccc(Br)cc1)NC(C)=O)C(C)(C)C, the IC50 (HepG2) was over 269 nM, the IC50 [1] was over 269 nM and the IC50 (MCF7) was over 269 nM. For the same molecule, the IC50 (KB) was 49 nM.
CCOC(=O)/C(C)=C/[C@H](C(C)C)N(C)C(=O)[C@@H](NC(=O)/C(=C/c1ccco1)NC(C)=O)C(C)(C)C gave an IC50 (HepG2) of 31.4 nM, an IC50 [1] of 231 nM and an IC50 (MCF7) of 178 nM. The IC50 (KB) was 3.5 nM.
COc1ccc(/C=C(\NC(C)=O)C(=O)N[C@H](C(=O)N[C@H](/C=C(\C)C(=O)O)C(C)C)C(C)(C)C)cc1 showed an IC50 (HepG2) of over 269 nM, an IC50 [1] of over 269 nM and an IC50 (MCF7) of over 269 nM. The IC50 (KB) was over 269 nM.
Molecule COc1cccc(/C=C(\NC(C)=O)C(=O)N[C@H](C(=O)N(C)[C@H](/C=C(\C)C(=O)O)C(C)C)C(C)(C)C)c1 has an IC50 (HepG2) of over 269 nM, an IC50 [1] of over 269 nM and an IC50 (MCF7) of over 269 nM. The IC50 (KB) was over 269 nM.
CC(=O)N/C(=C\c1ccc(Br)cc1)C(=O)N[C@H](C(=O)N[C@H](/C=C(\C)C(=O)O)C(C)C)C(C)(C)C showed an IC50 (HepG2) of over 269 nM, an IC50 [1] of over 269 nM and an IC50 (MCF7) of over 269 nM. It also gave an IC50 (KB) of over 269 nM.
With CCOC(=O)/C(C)=C/[C@H](C(C)C)N(C)C(=O)[C@@H](NC(=O)/C(=C/c1ccc(OC)cc1)NC(C)=O)C(C)(C)C the IC50 (HepG2) was 3.7 nM, the IC50 [1] was over 269 nM and the IC50 (MCF7) was 215 nM. The IC50 (KB) was 3.7 nM.
Work on CC(=O)N/C(=C\c1ccc(Br)cc1)C(=O)N[C@H](C(=O)N(C)[C@H](/C=C(\C)C(=O)O)C(C)C)C(C)(C)C yielded an IC50 (HepG2) of over 269 nM, an IC50 [1] of over 269 nM and an IC50 (MCF7) of over 269 nM. For the same molecule, the IC50 (KB) was over 269 nM.
For COc1ccc(/C=C(\NC(C)=O)C(=O)N[C@H](C(=O)N(C)[C@H](/C=C(\C)C(=O)O)C(C)C)C(C)(C)C)cc1, the IC50 (HepG2) was 63.8 nM, the IC50 [1] was over 269 nM and the IC50 (MCF7) was over 269 nM. The IC50 (KB) was 15.8 nM.
Molecule CC(=O)N/C(=C\c1ccc2ccccc2c1)C(=O)N[C@H](C(=O)N[C@H](/C=C(\C)C(=O)O)C(C)C)C(C)(C)C has an IC50 (HepG2) of 33.4 nM, an IC50 [1] of over 269 nM and an IC50 (MCF7) of over 269 nM. It also gave an IC50 (KB) of 63 nM.
Molecule CCOC(=O)/C(C)=C/[C@H](C(C)C)N(C)C(=O)[C@@H](NC(=O)/C(=C/c1ccc2ccccc2c1)NC(C)=O)C(C)(C)C has an IC50 (HepG2) of 23.1 nM, an IC50 [1] of over 269 nM and an IC50 (MCF7) of 67.9 nM. For the same molecule, the IC50 (KB) was 23 nM.
CC(=O)N/C(=C\c1cccc(Br)c1)C(=O)N[C@H](C(=O)N[C@H](/C=C(\C)C(=O)O)C(C)C)C(C)(C)C gave an IC50 (HepG2) of over 269 nM, an IC50 [1] of over 269 nM and an IC50 (MCF7) of over 269 nM. It also gave an IC50 (KB) of over 269 nM.
For CCOC(=O)/C(C)=C/[C@H](C(C)C)N(C)C(=O)[C@@H](NC(=O)/C(=C/c1ccoc1)NC(C)=O)C(C)(C)C, the IC50 (HepG2) was 16.3 nM, the IC50 [1] was 158 nM and the IC50 (MCF7) was 113 nM. It also gave an IC50 (KB) of 24.1 nM.
CCOC(=O)/C(C)=C/[C@@H](NC(=O)[C@@H](NC(=O)/C(=C/c1ccc2ccccc2c1)NC(C)=O)C(C)(C)C)C(C)C showed an IC50 (HepG2) of 39.7 nM, an IC50 [1] of over 269 nM and an IC50 (MCF7) of 42.3 nM. It also gave an IC50 (KB) of 30.8 nM.
Work on COc1cccc(/C=C(\NC(C)=O)C(=O)N[C@H](C(=O)N[C@H](/C=C(\C)C(=O)O)C(C)C)C(C)(C)C)c1 yielded an IC50 (HepG2) of over 269 nM, an IC50 [1] of over 269 nM and an IC50 (MCF7) of over 269 nM. It also gave an IC50 (KB) of over 269 nM.
CCOC(=O)/C(C)=C/[C@H](C(C)C)N(C)C(=O)[C@@H](NC(=O)/C(=C/c1ccsc1)NC(C)=O)C(C)(C)C showed an IC50 (HepG2) of 15 nM, an IC50 [1] of over 269 nM and an IC50 (MCF7) of over 269 nM. For the same molecule, the IC50 (KB) was 202 nM.
For CC(=O)N/C(=C\c1ccoc1)C(=O)N[C@H](C(=O)N(C)[C@H](/C=C(\C)C(=O)O)C(C)C)C(C)(C)C, the IC50 (HepG2) was 149 nM, the IC50 [1] was over 269 nM and the IC50 (MCF7) was over 269 nM. It also gave an IC50 (KB) of over 269 nM.
CCOC(=O)/C(C)=C/[C@@H](NC(=O)[C@@H](NC(=O)/C(=C/c1ccc(Br)cc1)NC(C)=O)C(C)(C)C)C(C)C gave an IC50 (HepG2) of over 269 nM, an IC50 [1] of over 269 nM and an IC50 (MCF7) of over 269 nM. For the same molecule, the IC50 (KB) was over 269 nM.
Work on CC(=O)N/C(=C\c1ccco1)C(=O)N[C@H](C(=O)N(C)[C@H](/C=C(\C)C(=O)O)C(C)C)C(C)(C)C yielded an IC50 (HepG2) of over 269 nM, an IC50 [1] of over 269 nM and an IC50 (MCF7) of over 269 nM. For the same molecule, the IC50 (KB) was 188 nM.
